Legend:
HCT116 MTAP+/+ = test: Inhibition of cellular proliferation, 4 days, Cell Titer Glo, HCT116 MTAP+/+; type: cell-based; conditions: Homo sapiens, HCT-116, 96 h, IC50 bin with Max Inh., read-out: 4 Day Relative Growth Inhibition (MTAP +/+)
How it was run: (§1)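 IC50 derived from blank-corrected ATP luminescence (Cell Titer Glo) expressed relative to within-plate 0.2% DMSO wells. Compound, as a 10-point 3-fold series, was added 24 h after seeding the MTAP+/+ or MTAP−/− HCT116 cells and incubated 4 days at 37° C./5% CO2.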

MAT2A homodimer = target: T1, MAT2A homodimer (Homo sapiens, UniProt P31153); test: MAT2A inhibition (biochemical, liberated phosphate, PiColorLock Gold); conditions: recombinant MAT2A homodimer; IC50 bin with Max Inh.; read-out: Enzyme Inhibition Bin
T1 construct: inferred from Ni sepharose purification with imidazole elution; made in house; host or cells: Sf9 insect cells, baculovirus (Bac to Bac, pFASTBAC1)
How it was run: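 Enzyme at 4 μg/mL and compound equilibrated 60 min at 25 °C, then 60 min reaction after adding substrate mix (500 μM ATP, 400 μM methionine). Released phosphate quantified by colorimetric kit against a phosphate standard curve to give IC50. Secondary format used 1 μg/mL enzyme with 5 h incubation.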

HCT116 MTAP−/− = test: Inhibition of cellular proliferation, 4 days, Cell Titer Glo, HCT116 MTAP−/−; type: cell-based; conditions: Homo sapiens, HCT-116, 96 h, IC50 bin with Max Inh., read-out: 4 Day Relative Growth Inhibition (MTAP −/−)
How it was run: as §1

[1] = test system: SAM in HCT116 human colon carcinoma cell line with MTAP gene deleted (MTAP −/−); test: Cellular assay of target engagement (SAM), LC-MS/MS, 72 hrs; type: cell-based; conditions: HCT-116, IC50 bin with Max Inh., read-out: Cell 72 h SAM Inhibition (MTAP −/−)
How it was run: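 SAM levels were quantified by LC-MS/MS (m/z 399.2→250.1, d3-SAM internal standard) from cold methanol/acetic acid extracts, yielding IC50. Compound was applied as a 10-point 3-fold series for 72 hrs to MTAP −/− HCT116 cells seeded 24 hours before.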

T1 sequence (P31153 whole entry): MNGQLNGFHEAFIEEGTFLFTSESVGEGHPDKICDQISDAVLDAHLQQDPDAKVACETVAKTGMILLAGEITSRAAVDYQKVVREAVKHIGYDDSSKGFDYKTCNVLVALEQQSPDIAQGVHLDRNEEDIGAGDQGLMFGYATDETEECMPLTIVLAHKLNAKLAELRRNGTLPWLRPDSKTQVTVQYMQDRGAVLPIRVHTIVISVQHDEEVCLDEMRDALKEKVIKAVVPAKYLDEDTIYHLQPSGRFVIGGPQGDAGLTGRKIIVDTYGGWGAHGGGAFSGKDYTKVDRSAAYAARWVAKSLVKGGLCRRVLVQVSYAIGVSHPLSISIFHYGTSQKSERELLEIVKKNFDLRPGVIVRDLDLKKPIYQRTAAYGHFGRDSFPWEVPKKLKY

| IC50 (HCT116 MTAP+/+) [nM] | IC50 (MAT2A homodimer) [nM] | IC50 (HCT116 MTAP−/−) [nM] | IC50 [1] [nM] | SMILES |
| --- | --- | --- | --- | --- |
| 100 to 1000 | < 100 | < 100 | < 100 | Cn1cc2cc(-n3nc4c(Cl)cn(CC5CC5)c4c(-c4ccc(C5CC5)nc4)c3=O)ccc2n1 [Example 233, 7-chloro-5-(cyclopropylmethyl)-4-(6-cyclopropylpyridin-3-yl)-2-(2-methyl-2H-indazol-5-yl)-2,5-dihydro-3H-pyrrolo[3,2-c]pyridazin-3-one] |
| < 100 | < 100 | < 100 | < 100 | Cc1cn(CC2CC2)c2c(-c3ccc(C4CC4)nc3)c(=O)n(-c3ccc4nn(C)cc4c3)nc12 [Example 234, 5-(cyclopropylmethyl)-4-(6-cyclopropylpyridin-3-yl)-7-methyl-2-(2-methyl-2H-indazol-5-yl)-2,5-dihydro-3H-pyrrolo[3,2-c]pyridazin-3-one] |
| > 1000 | < 100 | < 100 | < 100 | Cn1cc2cc(-n3nc4c(F)cn(CC5CC5)c4c(-c4ccc(C5CC5)nc4)c3=O)ccc2n1 [Example 235, 5-(cyclopropylmethyl)-4-(6-cyclopropylpyridin-3-yl)-7-fluoro-2-(2-methyl-2H-indazol-5-yl)-2,5-dihydro-3H-pyrrolo[3,2-c]pyridazin-3-one] |
| 100 to 1000 | < 100 | < 100 | < 100 | Cc1ccc(-c2c(=O)n(-c3ccc4nn(C)cc4c3)nc3c(F)cn(CC4CC4)c23)cn1 [Example 237, 5-(cyclopropylmethyl)-7-fluoro-2-(2-methyl-2H-indazol-5-yl)-4-(6-methylpyridin-3-yl)-2,5-dihydro-3H-pyrrolo[3,2-c]pyridazin-3-one] |
| > 1000 | < 100 | < 100 | < 100 | Cn1cc2cc(-n3nc4c(Br)cn(CC5CC5)c4c(-c4ccc(C5CC5)nc4)c3=O)ccc2n1 [Example 238, 7-bromo-5-(cyclopropylmethyl)-4-(6-cyclopropylpyridin-3-yl)-2-(2-methyl-2H-indazol-5-yl)-2,5-dihydro-3H-pyrrolo[3,2-c]pyridazin-3-one] |
| < 100 | < 100 | < 100 | < 100 | Cn1cc2cc(-n3nc4c(CO)cn(CC5CC5)c4c(-c4ccc(C5CC5)nc4)c3=O)ccc2n1 [Example 239, 5-(cyclopropylmethyl)-4-(6-cyclopropylpyridin-3-yl)-7-(hydroxymethyl)-2-(2-methyl-2H-indazol-5-yl)-2,5-dihydro-3H-pyrrolo[3,2-c]pyridazin-3-one] |
| 100 to 1000 | < 100 | < 100 | < 100 | Cn1cc2cc(-n3nc4c(C(F)F)cn(CC5CC5)c4c(-c4ccc(C5CC5)nc4)c3=O)ccc2n1 [Example 240, 5-(cyclopropylmethyl)-4-(6-cyclopropylpyridin-3-yl)-7-(difluoromethyl)-2-(2-methyl-2H-indazol-5-yl)-2,5-dihydro-3H-pyrrolo[3,2-c]pyridazin-3-one] |
| > 1000 | < 100 | < 100 | < 100 | Cn1nc2ccc(-n3nc4ccn(CC5CC5)c4c(-c4ccc(C5CC5)nc4)c3=O)cc2c1C(F)(F)F [Example 241, 5-(cyclopropylmethyl)-4-(6-cyclopropylpyridin-3-yl)-2-(2-methyl-3-(trifluoromethyl)-2H-indazol-5-yl)-2,5-dihydro-3H-pyrrolo[3,2-c]pyridazin-3-one] |
| 100 to 1000 | < 100 | 100 to 1000 | 100 to 1000 | Cn1nc2ccc(-n3nc4c(C(F)(F)F)cn(CC5CC5)c4c(-c4ccc(C5CC5)nc4)c3=O)cc2c1C(F)(F)F [Example 242, 5-(cyclopropylmethyl)-4-(6-cyclopropylpyridin-3-yl)-2-(2-methyl-3-(trifluoromethyl)-2H-indazol-5-yl)-7-(trifluoromethyl)-2,5-dihydro-3H-pyrrolo[3,2-c]pyridazin-3-one] |
| 100 to 1000 | < 100 | < 100 | < 100 | C#Cc1cn(CC2CC2)c2c(-c3ccc(C4CC4)nc3)c(=O)n(-c3ccc4nn(C)cc4c3)nc12 [Example 244, 5-(cyclopropylmethyl)-4-(6-cyclopropylpyridin-3-yl)-7-ethynyl-2-(2-methyl-2H-indazol-5-yl)-2,5-dihydro-3H-pyrrolo[3,2-c]pyridazin-3-one] |
| > 1000 | < 100 | 100 to 1000 | > 1000 | Cn1cc2cc(-n3nc4c(C#CC(F)(F)F)cn(CC5CC5)c4c(-c4ccc(C5CC5)nc4)c3=O)ccc2n1 [Example 245, 5-(cyclopropylmethyl)-4-(6-cyclopropylpyridin-3-yl)-2-(2-methyl-2H-indazol-5-yl)-7-(3,3,3-trifluoroprop-1-yn-1-yl)-2,5-dihydro-3H-pyrrolo[3,2-c]pyridazin-3-one] |
| 100 to 1000 | < 100 | < 100 | < 100 | Cn1cc2cc(-n3nc4c(C(F)(F)F)cn(CC5CC5)c4c(-c4ccc(C5CC5)nc4)c3=O)ccc2n1 [Example 246, 5-(cyclopropylmethyl)-4-(6-cyclopropylpyridin-3-yl)-2-(2-methyl-2H-indazol-5-yl)-7-(trifluoromethyl)-2,5-dihydro-3H-pyrrolo[3,2-c]pyridazin-3-one] |
| > 1000 | < 100 | < 100 | < 100 | CCc1cn(CC2CC2)c2c(-c3ccc(C4CC4)nc3)c(=O)n(-c3ccc4nn(C)cc4c3)nc12 [Example 247, 5-(cyclopropylmethyl)-4-(6-cyclopropylpyridin-3-yl)-7-ethyl-2-(2-methyl-2H-indazol-5-yl)-2,5-dihydro-3H-pyrrolo[3,2-c]pyridazin-3-one] |
| > 1000 | < 100 | < 100 | < 100 | CC(C)c1cn(CC2CC2)c2c(-c3ccc(C4CC4)nc3)c(=O)n(-c3ccc4nn(C)cc4c3)nc12 [Example 248, 5-(cyclopropylmethyl)-4-(6-cyclopropylpyridin-3-yl)-7-isopropyl-2-(2-methyl-2H-indazol-5-yl)-2,5-dihydro-3H-pyrrolo[3,2-c]pyridazin-3-one] |
| > 1000 | < 100 | < 100 | < 100 | C[C@@H](O)c1cn(CC2CC2)c2c(-c3ccc(C4CC4)nc3)c(=O)n(-c3ccc4nn(C)cc4c3)nc12 [Example 249, (R)-5-(cyclopropylmethyl)-4-(6-cyclopropylpyridin-3-yl)-7-(1-hydroxyethyl)-2-(2-methyl-2H-indazol-5-yl)-2,5-dihydro-3H-pyrrolo[3,2-c]pyridazin-3-one] |
| > 1000 | < 100 | < 100 | < 100 | C[C@H](O)c1cn(CC2CC2)c2c(-c3ccc(C4CC4)nc3)c(=O)n(-c3ccc4nn(C)cc4c3)nc12 [Example 250, (S)-5-(cyclopropylmethyl)-4-(6-cyclopropylpyridin-3-yl)-7-(1-hydroxyethyl)-2-(2-methyl-2H-indazol-5-yl)-2,5-dihydro-3H-pyrrolo[3,2-c]pyridazin-3-one] |
| 100 to 1000 | < 100 | < 100 | < 100 | Cn1cc2cc(-n3nc4c(C#N)c(Cl)n(CC5CC5)c4c(-c4ccc(C5CC5)nc4)c3=O)ccc2n1 [Example 251, 6-chloro-5-(cyclopropylmethyl)-4-(6-cyclopropylpyridin-3-yl)-2-(2-methyl-2H-indazol-5-yl)-3-oxo-3,5-dihydro-2H-pyrrolo[3,2-c]pyridazine-7-carbonitrile] |
| > 1000 | < 100 | 100 to 1000 | 100 to 1000 | Cn1cc2cc(-n3nc4c(C#N)cn(CC5CC5)c4c(-c4ccc([C@@H]5CC5(F)F)nc4)c3=O)ccc2n1 [Example 252, (S)-5-(cyclopropylmethyl)-4-(6-(2,2-difluorocyclopropyl)pyridin-3-yl)-2-(2-methyl-2H-indazol-5-yl)-3-oxo-3,5-dihydro-2H-pyrrolo[3,2-c]pyridazine-7-carbonitrile] |

| SMILES | IC50 (HCT116 MTAP+/+) [nM] | IC50 (MAT2A homodimer) [nM] | IC50 (HCT116 MTAP−/−) [nM] | IC50 [1] [nM] |
| --- | --- | --- | --- | --- |
| CC(=O)c1cn(CC2CC2)c2c(-c3ccc(C4CC4)nc3)c(=O)n(-c3ccc4nn(C)cc4c3)nc12 [Example 236, 7-acetyl-5-(cyclopropylmethyl)-4-(6-cyclopropylpyridin-3-yl)-2-(2-methyl-2H-indazol-5-yl)-2,5-dihydro-3H-pyrrolo[3,2-c]pyridazin-3-one] | > 1000 | < 100 | < 100 | < 100 |
| Cn1cc2cc(-n3nc4c(C#C[Si](C)(C)C)cn(CC5CC5)c4c(-c4ccc(C5CC5)nc4)c3=O)ccc2n1 [Example 243, 5-(cyclopropylmethyl)-4-(6-cyclopropylpyridin-3-yl)-2-(2-methyl-2H-indazol-5-yl)-7-((trimethylsilyl)ethynyl)-2,5-dihydro-3H-pyrrolo[3,2-c]pyridazin-3-one] | > 1000 | < 100 | < 100 | < 100 |
